Results reported in US6541455B2, “Methods and kits for removing, treating, or preventing lice with driable pediculostatic agents” (priority 1999, dated 2003).

What was measured:
head lice [1] = test: In vitro test of agent dried onto lice (driable pediculostatic agent test); design: species or system Pediculus humanus capitis; settings: water by itself
From the text: Contact a louse with a pediculostatic agent for a period of time sufficient to immobilize the louse (i.e., for at least 1× the Immersion Reflex Index of the agent);
Dry the agent onto the louse, either by air-drying or by application of heat, and observe whether the louse remains immobilized.
The period of time necessary for a particular dried agent to kill the louse can be conveniently determined by rinsing the dried agent off lice as a function of time and observing whether the rinsed lice regain mobility upon drying off.
Six crawling lice were obtained from patients with head lice and each placed in a drop of […] ® Cleanser as described in EXAMPLE 1. After 2 min., the cleanser was dried onto the lice by air drying (4 lice) or gentle warm air from a hair dryer (2 lice).

head lice [2] = test: In vitro immersion reflex test: louse placed in a drop of wet agent on a microscope slide; design: species or system Pediculus humanus capitis; settings: water by itself
From the text: Driable pediculostatic agents useful in the methods and kits of the present invention are characterized by their ability to induce an immersion reflex in lice in their wet form and to keep the lice in the immersion reflex once dried. The following in vitro test can be conveniently used to determine whether any individual agent is a pediculostatic agent, and can further be used for routine screening of agents—such as those from natural products libraries and combinatorial chemical libraries—to identify those that can be used in the methods, compositions, and kits of the present invention:
1. Contact a louse with an agent suspected of being a pediculostatic agent; and
2. Observe whether the louse becomes immobile.
Observations can readily be performed using a standard inexpensive light microscope with 10× or 40× magnification. The length of time necessary to render the louse completely immobile, in minutes, is the Immersion Reflex Index of the agent tested.
Ten crawling lice were obtained from patients with head lice and each one placed on a separate microscope slide for observation under a microscope at 10× or 40× power. […] Within 6 seconds of application, they stopped all spontaneous movement. Usually within 30 seconds, and always within 60 seconds, they would not respond to contact by a probe and ceased previously visible gastrointestinal motility. […]

O [water]
lice upon drying of the agent (head lice [1]): recover and regain mobility
induction of the immersion reflex in lice (head lice [2]): triggers the immersion reflex
